Reference: US5853742A, “Cosmetic compositions containing lactate dehydrogenase inhibitors” (priority 1997, dated 1998)
“And” between values parts separate entries of the source, which are not always exact repeats. Equal values may be shown once. Read-outs that look alike come from different tables or passages of the source.

Key:
[1] = system: Neonatal human dermal fibroblasts; test: Collagen synthesis (secreted procollagen 1 immunoassay); type: cell-based; conditions: 0.2 to 20 mM, 48 hours, serum-free medium
Description: Neonatal human dermal fibroblasts were purchased from Clonetics Corp., San Diego, Calif. All materials for cell culture were purchased from Life Technologies, N.Y. Cells were maintained in DMEM with 10% fetal bovine serum and used in passages 5-10, Confluent 96-well plates containing fibroblasts were treated with test materials (0.2 to 20 mM) in serum-free medium for 48 hours. […] This was carried out in a BioDot SF apparatus according to the manufacturer's instructions (BioRad Labs, CA) and the blot was developed using a Vectastain Kit (PK6104, Vector Labs, CA) as per the manufacturer's directions. Color intensity was quantitated using an Ultroscan XL densitometer (Pharmacia LKB). Fold increase was calculated as (density of treated)/untreated.

[2] = system: Normal human epidermal keratinocytes (NHEK); test: Keratinocyte proliferation (DNA content, fluorometric); type: cell-based
Description: Normal human epidermal keratinocytes (NHEK) derived from neonatal foreskin were used for all experiments. Media were purchased from Clonetics Corp., San Diego, Calif. Cell stocks frozen in passage 2 were grown in Keratinocyte Growth Medium (KGM) and passaged when 70-80% confluent. Cells were seeded in 96 well plates (Corning) at a density of 7500 cells/well in KGM. After 24 hours, cells were rinsed and dosed with test compounds in 200 μl of Keratinocyte Basal Medium (KBM). Plates were incubated for three days at 37° C., 5% CO2. Cell proliferation was estimated by assaying for DNA content by a fluorometric method described by Rago et al. (Analytical Biochemistry, 191:31-34, 1990). Medium was removed and cells were rinsed with phosphate buffered saline solution. 100 μl of sterile distilled water was added to each well and plates were frozen at -70° C. for one and a half hours. Plates were thawed for one hour at which time 100 μl of a 20 ug/ml solution of Bisbenzimide H33258 fluorochrome (Calbiochem Corp., La Jolla, Calif.) was added to each well. The fluorochrome was prepared just prior to use in 10 mM Tris, 1 mM EDTA, 4M NaCl, pH 7.4. Plates were read in a Millipore Cytofluor fluorescent plate reader to quantify DNA (excitation 360 nm, emission 460 nm). Percent increase over control was calculated from blank-corrected readings as (treated-untreated)/(untreated)*100%.

[3] = system: Fibroblast Lactate Dehydrogenase; test: Lactate dehydrogenase (LDH) inhibition, fibroblast lysate; type: biochemical, human
Description: All reagents were purchased from Sigma Chemical Co., St. Louis, Mo, USA. Sigma procedure No. 500 was modified for our purposes. One mL of pyruvate substrate (Sigma […]-1, pH=7.5) was added to a vial containing 1 mg NADH (Sigma 340-101). In a 96-well plate, the following components were added to each test well: 10 μl pyruvate/NADH mixture, and 10 μl cell lysate. For preparation of cell lysates, neonatal human keratinocytes or fibroblasts (Clonetic Corp., San Diego, Calif.) were cultured in tissue culture plates (Corning, USA). Cells were scraped in PBS (pH=7.4) and this solution was used as a source of L-lactate dehydrogenase. If such cell lysate was not available, a commercial preparation of L-lactic dehydrogenase (E.C.1.1.1.27), Sigma L9889, from porcine heart could be used in place of the cell lysate. For positive control, the inhibitor was replaced with 10 μl of PBS. For blank determination, the lysate or enzyme was replaced with […]. After mixing, the plate was incubated for 30 minutes at 37° C. Then 20 μl of color reagent (Sigma 505-2) was added to each well. After 20 minutes at room temperature, 150 μI of 0.4N NaOH was added, and the plate was read for absorbance at 490 nm in a Dynatech MR 7000 Microplate Reader. To calculate % inhibition, the control activity (CA) was first determined by subtracting the absorbance of the positive control from the blank, Then the activity in the presence of the inhibitor (IA) was calculated by subtracting the appropriate absorbance from the blank. %/, Inhibition was then calculated as: ((CA-IA)/CA)* 100%/.

Compound: CC(=O)O [Acetate]
- Maximum fold over Control (collagen synthesis) [1]: 2.0 fold

Compound: O=C(O)CC(O)(CC(=O)O)C(=O)O [Citrate]
- activation at 10 µM ([2]; Homo sapiens, NHEK, 72 h, read-out: % Increase Over Control (keratinocyte proliferation), Table 6, citrate 0.01 mM): 25%
- activation at 100 µM ([2]; Homo sapiens, NHEK, 72 h, read-out: % Increase Over Control (keratinocyte proliferation), Table 6, citrate 0.1 mM): 40%
- activation at 150 µM ([2]; Homo sapiens, NHEK, 72 h, read-out: % Increase Over Control (keratinocyte proliferation), Table 6, citrate 0.15 mM): 18%
- activation at 300 µM ([2]; Homo sapiens, NHEK, 72 h, read-out: % Increase Over Control (keratinocyte proliferation), Table 6, citrate 0.3 mM): 39%
- activation at 600 µM ([2]; Homo sapiens, NHEK, 72 h, read-out: % Increase Over Control (keratinocyte proliferation), Table 6, citrate 0.6 mM): 35%
- activation at 1000 µM ([2]; Homo sapiens, NHEK, 72 h, read-out: % Increase Over Control (keratinocyte proliferation), Table 6, citrate 1.0 mM): 20%
- activation at 1250 µM ([2]; Homo sapiens, NHEK, 72 h, read-out: % Increase Over Control (keratinocyte proliferation), Table 6, citrate 1.25 mM): 18%
- activation at 2500 µM ([2]; Homo sapiens, NHEK, 72 h, read-out: % Increase Over Control (keratinocyte proliferation), Table 6, citrate 2.5 mM): 0%
- activation at 5000 µM ([2]; Homo sapiens, NHEK, 72 h, read-out: % Increase Over Control (keratinocyte proliferation), Table 6, citrate 5.0 mM): 0%
- activation at 10000 µM ([2]; Homo sapiens, NHEK, 72 h, read-out: % Increase Over Control (keratinocyte proliferation), Table 6, citrate 10 mM): 0%
- activation at 2 µM ([2]; Homo sapiens, NHEK, 72 h, read-out: % Increase Over Control (keratinocyte proliferation), Table 7, 0.002 mM): 22%
- activation at 20 µM ([2]; Homo sapiens, NHEK, 72 h, read-out: % Increase Over Control (keratinocyte proliferation), Table 7, 0.02 mM): 31%
- activation at 20000 µM ([2]; Homo sapiens, NHEK, 72 h, read-out: % Increase Over Control (keratinocyte proliferation), Table 7, 20 mM): 0%

Compound: C[C@@H](O)C(=O)O [D-lactate]
- % Inhibition ([3]; 0.625 mM): 0%
- % Inhibition ([3]; 1.25 mM): 0%
- % Inhibition ([3]; 2.5 mM): 0%
- % Inhibition ([3]; 5 mM): 0%

Compound: N[C@@H](CCC(=O)O)C(=O)O [Glutamate]
- Maximum fold over Control (collagen synthesis) [1]: 3.6 fold

Compound: NCC(=O)O [Glycinate]
- % Inhibition ([3]; 0.625 mM): 0%
- % Inhibition ([3]; 1.25 mM): 0%
- % Inhibition ([3]; 2.5 mM): 0%
- % Inhibition ([3]; 5 mM): 0%

Compound: O=C(O)CO [Glycolate]
- % Inhibition ([3]; 0.625 mM): 0%
- % Inhibition ([3]; 1.25 mM): 0%
- % Inhibition ([3]; 2.5 mM): 0%
- % Inhibition ([3]; 5 mM): 0%

Compound: O=C(O)CC(C(=O)O)C(O)C(=O)O (stereo not shown) [Isocitrate]
- activation at 0.2 µM ([2]; Homo sapiens, NHEK, 72 h, read-out: % Increase Over Control (keratinocyte proliferation), Table 8, isocitrate 0.0002 mM): 0%
- activation at 2 µM ([2]; Homo sapiens, NHEK, 72 h, read-out: % Increase Over Control (keratinocyte proliferation), Table 8, isocitrate 0.002 mM): 39%
- activation at 156 µM ([2]; Homo sapiens, NHEK, 72 h, read-out: % Increase Over Control (keratinocyte proliferation), Table 8, isocitrate 0.156 mM): 32%
- activation at 313 µM ([2]; Homo sapiens, NHEK, 72 h, read-out: % Increase Over Control (keratinocyte proliferation), Table 8, isocitrate 0.313 mM): 40%
- activation at 625 µM ([2]; Homo sapiens, NHEK, 72 h, read-out: % Increase Over Control (keratinocyte proliferation), Table 8, isocitrate 0.625 mM): 32%
- activation at 1250 µM ([2]; Homo sapiens, NHEK, 72 h, read-out: % Increase Over Control (keratinocyte proliferation), Table 8, isocitrate 1.25 mM): 40%
- activation at 2000 µM ([2]; Homo sapiens, NHEK, 72 h, read-out: % Increase Over Control (keratinocyte proliferation), Table 8, isocitrate 2.0 mM): 40%
- activation at 2500 µM ([2]; Homo sapiens, NHEK, 72 h, read-out: % Increase Over Control (keratinocyte proliferation), Table 8, isocitrate 2.5 mM): 32%
- activation at 5000 µM ([2]; Homo sapiens, NHEK, 72 h, read-out: % Increase Over Control (keratinocyte proliferation), Table 8, isocitrate 5.0 mM): 18%
- activation at 10000 µM ([2]; Homo sapiens, NHEK, 72 h, read-out: % Increase Over Control (keratinocyte proliferation), Table 8, isocitrate 10 mM): 0%
- % Increase Over Control (keratinocyte proliferation) ([2]; Table 8, isocitrate 0.002 mM): 20%
- % Increase Over Control (keratinocyte proliferation) ([2]; Table 8, isocitrate 2.0 mM): 30%

Compound: O=C(O)CCC(=O)C(=O)O [Ketoglutarate]
- Maximum fold over Control (collagen synthesis) [1]: 2.2 fold

Compound: O=C(O)C[C@H](O)C(=O)O [L-Malate]
- % Inhibition ([3]; 0.625 mM): 0%
- % Inhibition ([3]; 1.25 mM): 0%
- % Inhibition ([3]; 2.5 mM): 0%
- % Inhibition ([3]; 5 mM): 0%
- activation at 2 µM ([2]; Homo sapiens, NHEK, 72 h, read-out: % Increase Over Control (keratinocyte proliferation), Table 5, L-malate 0.002 mM): 34%
- activation at 20 µM ([2]; Homo sapiens, NHEK, 72 h, read-out: % Increase Over Control (keratinocyte proliferation), Table 5, L-malate 0.02 mM): 27%
- activation at 200 µM ([2]; Homo sapiens, NHEK, 72 h, read-out: % Increase Over Control (keratinocyte proliferation), Table 5, L-malate 0.2 mM): 36%
- % Increase Over Control (keratinocyte proliferation) ([2]; Table 5, L-malate 0.2 mM): 19% and 29%
- % Increase Over Control ([2]; Table 12, oxamate 0, malate 0.156 mM): 33%
- % Increase Over Control ([2]; Table 12, oxamate 0, malate 0.313 mM): 29%
- % Increase Over Control ([2]; Table 12, oxamate 0, malate 0.625 mM): 36%
- % Increase Over Control ([2]; Table 12, oxamate 0, malate 1.25 mM): 25%
- % Increase Over Control ([2]; Table 12, oxamate 0, malate 2.5 mM): 39%
- % Increase Over Control ([2]; Table 12, oxamate 0, malate 5.0 mM): 20%

Compound: C[C@H](O)C(=O)O [L-lactate]
- % Inhibition ([3]; 0.625 mM): 0%
- % Inhibition ([3]; 1.25 mM): 0%
- % Inhibition ([3]; 2.5 mM): 0%
- % Inhibition ([3]; 5 mM): 0%

Compound: O=C(O)CC(=O)O [Malonate]
- % Inhibition ([3]; 0.625 mM): 0%
- % Inhibition ([3]; 1.25 mM): 0%
- % Inhibition ([3]; 2.5 mM): 0%
- % Inhibition ([3]; 5 mM): 0%

Compound: O=C(O)CC(=O)C(=O)O [Oxaloacetate]
- activation at 2 µM ([2]; Homo sapiens, NHEK, 72 h, read-out: % Increase Over Control (keratinocyte proliferation), Table 9, oxaloacetate 0.002 mM): 11%
- activation at 20 µM ([2]; Homo sapiens, NHEK, 72 h, read-out: % Increase Over Control (keratinocyte proliferation), Table 9, oxaloacetate 0.02 mM): 15%
- activation at 80 µM ([2]; Homo sapiens, NHEK, 72 h, read-out: % Increase Over Control (keratinocyte proliferation), Table 9, oxaloacetate 0.08 mM): 56%
- activation at 200 µM ([2]; Homo sapiens, NHEK, 72 h, read-out: % Increase Over Control (keratinocyte proliferation), Table 9, oxaloacetate 0.2 mM): 22%
- activation at 2500 µM ([2]; Homo sapiens, NHEK, 72 h, read-out: % Increase Over Control (keratinocyte proliferation), Table 9, oxaloacetate 2.5 mM): 40%
- activation at 5000 µM ([2]; Homo sapiens, NHEK, 72 h, read-out: % Increase Over Control (keratinocyte proliferation), Table 9, oxaloacetate 5.0 mM): 35%
- activation at 20000 µM ([2]; Homo sapiens, NHEK, 72 h, read-out: % Increase Over Control (keratinocyte proliferation), Table 9, oxaloacetate 20 mM): 44%
- % Increase Over Control (keratinocyte proliferation) ([2]; Table 9, oxaloacetate 0.02 mM): 30%
- % Increase Over Control (keratinocyte proliferation) ([2]; Table 9, oxaloacetate 0.2 mM): 20%
- % Increase Over Control (keratinocyte proliferation) ([2]; Table 9, oxaloacetate 2.5 mM): 37%
- % Increase Over Control (keratinocyte proliferation) ([2]; Table 9, oxaloacetate 5.0 mM): 52%
- Maximum fold over Control (collagen synthesis) [1]: 3.0 fold

Compound: c1cn[nH]c1 [Pyrazole]
- % Inhibition ([3]; 0.625 mM): 0%
- % Inhibition ([3]; 1.25 mM): 0%
- % Inhibition ([3]; 2.5 mM): 0%
- % Inhibition ([3]; 5 mM): 0%

Compound: CC(=O)C(=O)O [Pyruvate]
- % Increase Over Control ([2]; Table 11, oxamate 0, pyruvate 0.156 mM): 2%
- % Increase Over Control ([2]; Table 11, oxamate 0, pyruvate 0.313 mM): 0%
- % Increase Over Control ([2]; Table 11, oxamate 0, pyruvate 0.625 mM): 3%
- % Increase Over Control ([2]; Table 11, oxamate 0, pyruvate 1.25 mM): 0%
- % Increase Over Control ([2]; Table 11, oxamate 0, pyruvate 2.5 mM): 7%
- % Increase Over Control ([2]; Table 11, oxamate 0, pyruvate 5.0 mM): 0%

Compound: O=C(O)CCC(=O)O [Succinate]
- Maximum fold over Control (collagen synthesis) [1]: 2.8 fold

Compound: CC(S)C(=O)O (stereo not shown) [Thio-Lactate, Thiolactate]
- activation at 313 µM ([2]; Homo sapiens, NHEK, 72 h, Table 4, 0.313 mM, read-out: % increase over control (keratinocyte proliferation)): 9%
- activation at 625 µM ([2]; Homo sapiens, NHEK, 72 h, Table 4, 0.625 mM, read-out: % increase over control (keratinocyte proliferation)): 29%
- activation at 1250 µM ([2]; Homo sapiens, NHEK, 72 h, Table 4, 1.25 mM, read-out: % increase over control (keratinocyte proliferation)): 27%
- activation at 2500 µM ([2]; Homo sapiens, NHEK, 72 h, Table 4, 2.5 mM, read-out: % increase over control (keratinocyte proliferation)): 5%
- activation at 5000 µM ([2]; Homo sapiens, NHEK, 72 h, Table 4, 5 mM, read-out: % increase over control (keratinocyte proliferation)): 0%

Compound: Methyl pyrazole
- % Inhibition ([3]; 0.625 mM): 0%
- % Inhibition ([3]; 1.25 mM): 0%
- % Inhibition ([3]; 2.5 mM): 0%
- % Inhibition ([3]; 5 mM): 0%
